Assay results published in patent publication US10370378B2, “Treatment of sleep disorders” (Evotec International GmbH, priority 2007, dated 2019).
Entries after “also recorded” stand apart in the source; their conditions may differ.

Assays:
α1β2γ2 GABAA receptors = molecular target: T1, α1β2γ2 GABAA receptors (Rattus norvegicus, UniProt P18508+P62813); assay: Stimulation of currents elicited by GABA (EC3-5), two-electrode voltage clamp, receptors expressed in Xenopus oocytes; assay type: cell-based
T1 construct: expressed in transfected cells; host or cells: Xenopus laevis oocytes, cRNA microinjection
Text: 7-Chloro-3-(5-dimethylaminomethyl-[1,2,4]oxadiazol-3-yl)-5-methyl-4,5-dihydro-imidazol[1,5,-a][1,4]benzodiazepine-6-one was used to test the effects of the compound of formula (II): […]
Similar procedures were chosen as for the investigation of other GABAA receptor subunit specific substances (e.g., Baur et al., 2005; Mol. Pharmacol. 68, 787-792).
Lobes of the ovary containing the follicles were obtained by surgical procedures from female Xenopus laevis. Follicles were singled out using a platinum loop. Fifty nL of cRNA solution at a ratio of αx:β2:γ2 of 1:1:5 (3.3-10 nM αx (x=1, 2, 3, 5); 3.3-10 nM β2; 16.7-50 nM γ2) (Boileau et al., 2002; Neuropharmacology 43, 695-700) were microinjected into Xenopus follicles. Several hours after microinjection the follicles were freed of follicular layers and adhering connective tissue by a collagenase/hypertonic shock procedure (Sigel, 1987; J. Physiol. (Land) 386, 73-90). Oocytes were kept at constant 18° C. until measurement (1-4 days) in a modified Barth solution (88 mM NaCl, 1 mM KCl, 2.4 mM NaHCO3, 10 mM Hepes-NaOH (pH 7.5), 0.82 mM MgSO4×7H2O, 0.34 mM Ca(NO3)2×4H2O, 0.41 mM CaCl2×2H2O, 100 U Penicillin/mL, 100 μg Streptomycin/mL, sterile filtered).
Currents were measured using a home-built amplifier in combination with a xy-recorder or were digitized using a MacLab/200 (AD Instruments) and stored on a computer. Xenopus oocytes were voltage clamped using the two-electrode voltage clamp technique (electrode resistance about 0.8 MΩ) at −80 mV. The medium contained 90 mM NaCl, 1 mM KCl, 1 mM MgCl2, 1 mM CaCl2, 10 mM Na-Hepes (pH 7.4) and 0.5% DMSO.
GABA was applied for 20-50 seconds without or in combination with other drugs and a washout period of 4 minutes was allowed to ensure full recovery from desensitization, which was experimentally determined. The perfusion solution (6 mL/min) was applied through a glass capillary with an inner diameter of 1.35 mm, the mouth of which was placed about 0.4 mm from the surface of the oocyte. The rate of solution change under our conditions has been estimated 70% within less than 0.5 s (Sigel et al., 1990; Neuron 5, 703-711). The entire perfusion system and the assay chamber were cleaned between drug applications by washing with DMSO.
Data is given as mean±SD, except in the figures where data is shown for clarity as mean±SEM. Current stimulation was calculated as follows: stimulation (%)=((I(GABA+modulator)−I(GABA))/I(GABA))×100%, where I is the current amplitude. Where indicated, the stimulation was standardized to the stimulation by 1 μM diazepam (100%). To obtain FIGS. 1-4, values for current stimulation obtained at a given concentration of modulator at a given subunit combination were averaged. The data points were fitted with the equation stimulation=efficacy/(1+(potency/concentration of modulator)). The values given in the Tables (Summary) are obtained by fitting individual curves and subsequently averaging efficacy and potency. […]
GABA was then applied in combination with various concentrations of the compound of formula (II) between 0.3 nM and 3,000 nM to produce a cumulative concentration response curve. […] In each batch of oocytes the stimulation by 1 μM diazepam was determined in five oocytes, extent of stimulation averaged and defined as 100%. Where indicated, stimulation by the compound of formula (II) in each batch of oocytes was expressed as a percentage of this value in the corresponding batch. […]

[1] = test system: primary insomnia, subjects at least 65 years old; assay: Example 4: placebo-controlled parallel group study, 7 nights dosing, elderly subjects with primary insomnia; assay type: in vivo, human; conditions: for Number of subjects with any event (%): number (percent); for Adjusted mean LPS / Adjusted mean TST / Adjusted mean WASO: PSG, average of nights 1, 6 and 7; for LPS % change from placebo / WASO % change from placebo: decrease; for TST % change from placebo: increase
Procedure: A randomized, double-blind, placebo-controlled parallel group design was used to assess the hypnotic efficacy of 1.5 mg and 2.5 mg doses of the compound of formula (II) following 7 nights dosing using 149 subjects. The study was conducted in 20 sleep laboratories in the United States using both objective and subjective measures. PSG data was collected on nights 1, 6 and 7 and results are based on the mean data from these three nights. The compound of formula (II) was administered in free base form as a powder in a capsule.
The subjects were males and females at least 65 years old with a documented diagnosis of primary insomnia (DSM-IV criteria). These subjects' typical bed time was between 9 pm and 1 am with at least 7 hours in bed. These subjects reported five nights or more in seven days with TST of not more than 6.5 hours with at least 7 hours in bed. […] On screening using PSG for 2 nights, mean TST was 240-420 minutes. Mean latency in Multiple Sleep Latency Test (MSLT) was at least 5.5 minutes and not more than 14 minutes.
PSG was used to obtain TST (average of nights 1, 6 and 7). The daytime function (day 8) was measured using Psychomotor Vigilance Task (PVT), MSLT (MSLT Clinical Guidelines; Sleep, 1(3): 260-276 (1992)), Karolinska Sleepiness Scale (KSS); and objective measures Rey Auditory Verbal Learning Test (RAVLT) (day 8) (assessed 30±10 minutes after lights-on). Sleep architecture, subject reported sleep variables and categorical rating of sleep quality and safety endpoints including the Benzodiazepine Withdrawal Questionnaire were also determined.

[2] = 1.5 mg and 2.5 mg, across 7 nights

T1 sequence (P62813 28-455): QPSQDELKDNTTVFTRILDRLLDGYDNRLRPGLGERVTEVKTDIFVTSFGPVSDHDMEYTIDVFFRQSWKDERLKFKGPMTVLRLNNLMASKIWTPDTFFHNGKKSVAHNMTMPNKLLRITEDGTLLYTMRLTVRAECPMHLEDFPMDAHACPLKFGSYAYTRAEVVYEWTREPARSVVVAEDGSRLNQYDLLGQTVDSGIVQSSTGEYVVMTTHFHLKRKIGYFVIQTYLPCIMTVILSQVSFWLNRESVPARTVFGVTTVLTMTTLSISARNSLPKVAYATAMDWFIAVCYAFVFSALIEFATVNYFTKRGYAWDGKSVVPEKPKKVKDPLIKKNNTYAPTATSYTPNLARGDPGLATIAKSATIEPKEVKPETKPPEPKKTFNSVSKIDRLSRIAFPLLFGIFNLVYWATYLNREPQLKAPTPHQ
T1 sequence (P63138 25-474 partner limits assumed): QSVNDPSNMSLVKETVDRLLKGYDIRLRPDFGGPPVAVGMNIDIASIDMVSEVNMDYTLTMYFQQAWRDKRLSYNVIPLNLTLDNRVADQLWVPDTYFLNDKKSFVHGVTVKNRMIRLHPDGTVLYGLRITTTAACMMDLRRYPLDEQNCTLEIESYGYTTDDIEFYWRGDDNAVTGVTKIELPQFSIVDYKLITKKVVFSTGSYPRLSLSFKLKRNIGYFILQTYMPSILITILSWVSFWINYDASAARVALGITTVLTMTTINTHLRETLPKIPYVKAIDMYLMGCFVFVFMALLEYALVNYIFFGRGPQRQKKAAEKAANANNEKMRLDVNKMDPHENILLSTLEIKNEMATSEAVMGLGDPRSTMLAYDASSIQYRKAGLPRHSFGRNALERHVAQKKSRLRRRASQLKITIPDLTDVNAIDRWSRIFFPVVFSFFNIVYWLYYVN
T1 sequence (P18508 39-466): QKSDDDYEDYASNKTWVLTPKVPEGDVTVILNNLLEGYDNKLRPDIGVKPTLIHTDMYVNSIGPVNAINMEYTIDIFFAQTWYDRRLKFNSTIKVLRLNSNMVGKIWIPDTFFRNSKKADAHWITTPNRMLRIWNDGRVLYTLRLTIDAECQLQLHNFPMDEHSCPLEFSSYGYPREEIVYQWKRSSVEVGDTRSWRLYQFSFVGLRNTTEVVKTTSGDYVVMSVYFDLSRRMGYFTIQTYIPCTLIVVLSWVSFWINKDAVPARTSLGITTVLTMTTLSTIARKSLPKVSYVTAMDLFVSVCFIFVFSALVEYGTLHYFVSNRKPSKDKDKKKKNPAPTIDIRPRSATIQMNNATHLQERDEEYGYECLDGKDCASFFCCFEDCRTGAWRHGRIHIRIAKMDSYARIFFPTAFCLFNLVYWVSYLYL

SMILES: CN(C)Cc1nc(-c2ncn3c2CN(C)C(=O)c2c(Cl)cccc2-3)no1 [compound of formula (II), 7-chloro-3-(5-dimethylaminomethyl-[1,2,4]oxadiazol-3-yl)-5-methyl-4,5-dihydro-imidazo[1,5-a][1,4]benzodiazepine-6-one]
- Intrinsic activity / type of allosteric modulation (α1β2γ2 GABAA receptors; GABAA receptor benzodiazepine site): partial agonist; also recorded: partial positive allosteric modulator
- Receptor subtype preference in comparison to α5β2γ2, α3β2γ2 and α2β2γ2 (α1β2γ2 GABAA receptors; concentrations <100 nM): preference for α1β2γ2 GABAA receptors
- increase of mean TST compared to placebo ([1]; 1.5 mg): 30.9 min
- Dizziness, number of subjects (%) ([1]; 1.5 mg (n = 53)): 3 (5.7)
- Headache, number of subjects (%) ([1]; 1.5 mg (n = 53)): 5 (9.4)
- Somnolence, number of subjects (%) ([1]; 1.5 mg (n = 53)): 1 (1.9)
- Number of subjects with any event (%) ([1]; 1.5 mg (n = 53)): 15 (28.3)
- safety and tolerability ([1]; 1.5 mg and 2.5 mg doses, elderly): safe and well-tolerated
- sTST [1, 2]: significant increase
- sWASO [1, 2]: significant decrease
- subject-reported sleep onset latency [1, 2]: significant reduction
- Adjusted mean LPS ([1]; 1.5 mg): 30.5 min
- Adjusted mean TST ([1]; 1.5 mg): 369.5 min
- Adjusted mean WASO ([1]; 1.5 mg): 86.2 min
- LPS % change from placebo ([1]; 1.5 mg): 34%
- WASO % change from placebo ([1]; 1.5 mg): 15%
- total wake time hour by hour ([1]; 1.5 mg, each hour up to hour 6): significantly reduced
- TST % change from placebo ([1]; 1.5 mg): 9%
- WASO in the second half of the night (5-8 hours after lights out) ([1]; 2.5 mg): significant decrease
- increase of mean TST compared to placebo ([1]; 2.5 mg): 56.4 min
- Dizziness, number of subjects (%) ([1]; 2.5 mg (n = 52)): 5 (9.6)
- Headache, number of subjects (%) ([1]; 2.5 mg (n = 52)): 3 (5.8)
- Somnolence, number of subjects (%) ([1]; 2.5 mg (n = 52)): 6 (11.5)
- Number of subjects with any event (%) ([1]; 2.5 mg (n = 52)): 19 (36.5)
- Adjusted mean LPS ([1]; 2.5 mg): 26.5 min
- Adjusted mean TST ([1]; 2.5 mg): 395 min
- Adjusted mean WASO ([1]; 2.5 mg): 65.3 min
- LPS % change from placebo ([1]; 2.5 mg): 43%
- WASO % change from placebo ([1]; 2.5 mg): 36%
- TWT hour by hour ([1]; 2.5 mg, every hour except hour 7): significantly reduced
- TST % change from placebo ([1]; 2.5 mg): 17%
- residual sedation, subject reported ([1]; 30 minutes post wake time (approximately 9 hours post dose)): no residual sedation
- KSS (subjective) versus placebo ([1]; day 8): no significant difference
- MSLT average sleep latency over all timepoints (2, 4, 6, 8 & 10 hours post wake time) ([1]; day 8, daytime function): increased
- Benzodiazepine Withdrawal Questionnaire versus placebo ([1]; either dose): No significant difference
- PVT or RAVLT versus placebo ([1]; either dose, day 8): no significant differences
- sleep architecture (PSG) ([1]; human, in vivo): generally preserved sleep architecture
- subjective sleep quality ([1]; over all 7 nights of dosing): sustained improvement
